From paper PMC9618103, “Exploratory toxicology studies of 2,3-substituted imidazo[1,2-a]pyridines with antiparasitic and anti-inflammatory properties” (Toxicology Research, 2022)

Tests used:
Wistar rats [1] = experiment: Subacute toxicity: serum and urine glucose, urinary protein excretion; format: in vivo; conditions: for Filtered Load of Glucose / Fractional Excretion of Glucose / Serum Glucose / Urinary Glucose Excretion / Urinary Protein Excretion: rats, p.o., 14 days at 10% of LD50 (CCl4, APAP: once daily, 3 days), mean ± SEM, n = 6
Protocol: (§1) For toxicity tests, acclimatized rats were randomly allocated to 12 groups (n = 12 for the control and n = 6 for the rest groups). […] Meanwhile, the aforementioned vehicles (dose volume 2 mL/kg b.w.) were administered to 3 groups. […] The animals were then housed in individual metabolic cages to collect urine for a period of 6 h and then the volume was recorded. Afterward, blood samples were obtained and the serum was separated by centrifugation at 1,620 × g for 10 min at room temperature.
Serum and urine glucose concentration were calculated using GOD-PAP kits (RANDOX, Laboratories Ltd, UK). Urinary protein was quantified using the Bradford method.[29]
(§2) Serum and urinary creatinine were determined by the Jaffe method. With this value, evaluation was made of the fractional excretion of sodium (FES), fractional excretion of potassium (FEP), and fractional excretion of glucose.[30]^,[31] The GFR was calculated from clearance of endogenous creatinine using the conventional equation:where GFR (CCr) is the creatinine clearance rate (mL/min); UCr and SCr are the creatinine concentrations (mg/dL) in urine and serum, respectively; and φ is the urinary flow rate (UFR) (mL/min). To avoid the error from the tubular secretion of creatinine found in males, only female animals were used.
(§3) The levels of sodium and potassium were measured in urine and serum using a flame photometer (Corning 400, Medfield, United States). Calculation was made of the clearance, fractional excretion, and filtered load of sodium (FLS), filtered load of potassium (FLP), and filtered load of glucose (FLG) using the conventional equations:where CX is the clearance rate of X (mL/min), CCr is the creatinine clearance rate (mL/min), UX and SX are the […] concentrations of X, respectively, φ is the UFR (mL/min), FEX is the fractional excretion (%) of X, and FLX is the filtered load of X in μEq/min (Na^+ or K^+) or mg/min (glucose).

Wistar rats [2] = experiment: Subacute toxicity: glomerular filtration rate (creatinine clearance) and serum creatinine; format: in vivo; conditions: for Glomerular Filtration Rate / Serum Creatinine: rats, p.o., 14 days at 10% of LD50 (CCl4, APAP: once daily, 3 days), mean ± SEM, n = 6
Protocol: as §1, §2

Wistar rats [3] = experiment: Subacute toxicity: water and electrolyte balance (osmolality, sodium, potassium, urinary flow); format: in vivo; conditions: for Filtered Load of Potassium / Filtered Load of Sodium / Fractional Excretion of Potassium / Fractional Excretion of Sodium / Serum Osmolality / Serum Potassium / Serum Sodium / U/S Osm ratio / Urinary Flow Rate / Urinary Potassium Excretion / Urinary Sodium Excretion: rats, p.o., 14 days at 10% of LD50 (CCl4, APAP: once daily, 3 days), mean ± SEM, n = 6
Protocol: as §1
Osmolality of serum and urine were assessed (in triplicate) by using a vapor pressure osmometer (Wescor 5500, Logan, United States). U/S ratio as well as osmolar (COsm) and free water clearances were calculated via conventional equations:where UOsm and SOsm are the osmolality values (mOsm/Kg) in urine and serum, respectively, and φ is the UFR (mL/min).
as §3

Wistar rats [4] = experiment: Subacute toxicity: serum alanine aminotransferase and alkaline phosphatase activity; format: in vivo; conditions: for Alanine Aminotransferase / Alkaline Phosphatase: serum, rats, p.o., 14 days at 10% of LD50 (CCl4, APAP: once daily, 3 days), mean ± SEM, n = 6
Protocol: (§4) For toxicity tests, acclimatized rats were randomly allocated to 12 groups (n = 12 for the control and n = 6 for the rest groups). […] Meanwhile, the aforementioned vehicles (dose volume 2 mL/kg b.w.) were administered to 3 groups. […] Upon completion of the 14-day treatments and before sample collection, the bladders of animals were emptied by gentle pressure on the lower part of the abdomen to induce urination. The animals were then housed in individual metabolic cages to collect urine for a period of 6 h and then the volume was recorded. Afterward, blood samples were obtained and the serum was separated by centrifugation at 1,620 × g for 10 min at room temperature.
The activities of serum alanine aminotransferase (ALT) and alkaline phosphatase (ALP) were measured with standard kits (RANDOX, Laboratories Ltd, UK).

[5] = system: renal secretory pathway of organic anions; experiment: Active tubular secretion of organic acids (PAH uptake in kidney cortex slices); format: in vivo, rats; conditions: kidney cortex slices, PAH 1 mM, 1 h, 25 °C; rats, p.o., 14 days at 10% of LD50 (CCl4, APAP: once daily, 3 days); mean ± SEM, n = 6
Protocol: as §4
p-Aminohippuric acid (PAH) was used as an indicator of the renal secretory pathway of organic anions. Kidneys were extracted and immediately submerged in Ringer solution (pH = 7.4 and mOsm = 290 ± 10 mOsm/kg) under constant bubbling with O2/CO2 (95/5%). The kidneys were decapsulated and slices of the kidney cortex were obtained, which were then incubated in Ringer solution containing PAH (1 mM) for 1 h at 25 °C under constant bubbling with O2/CO2 (95/5%). The levels of PAH were quantified with the Bratton-Marshall method and results were expressed as the PAH tissue/medium ratio (PAH t/m ratio).[31]^,[32]

Wistar rats [6] = experiment: Hepatic and renal lipid peroxidation (lipid-soluble fluorescence); format: in vivo; conditions: for hepatic LPO, change in words / renal LPO, change in words: compared to the control group (CCl4 also versus PO); for Renal Lipoperoxidation: kidney; for Renal Lipoperoxidation / Hepatic Lipoperoxidation: rats, p.o., 14 days at 10% of LD50 (CCl4, APAP: once daily, 3 days), mean ± SEM, n = 6; for Hepatic Lipoperoxidation: liver
Protocol: as §4
Lipid peroxidation (LPO) was evaluated by the formation of lipid-soluble fluorescence, as previously described. Briefly, kidney and liver tissues were homogenized in 3 and 5 mL of phosphate buffer (0.2 M, pH = 7.4), respectively. A volume of 1 mL (kidney) or 0.8 mL (liver) of the homogenates was added to 7 mL of chloroform-methanol (2:1, v/v), and after 15 s of vortex mixing, the resulting mixture was cooled using an ice bath for 30 min to allow for phase separation. The fluorescence of the organic phase was measured using a Shimadzu fluorometer (Japan; λex = 370 nm; λem = 430 nm), whose sensitivity was adjusted to 140 fluorescence units by using 1 μg/mL of quinine sulfate in 50 mM H2SO4. The results were expressed as relative fluorescence units per milligram of protein.[33]
(§5) The protein concentration in homogenates was measured by the Bradford method.[29]

Wistar rats [7] = experiment: Hepatic and renal reactive oxygen species (DCF formation); format: in vivo; conditions: for hepatic ROS, change in words / renal ROS, change in words: compared to the control group (CCl4 also versus PO); for Renal ROS: kidney; for Renal ROS / Hepatic ROS: rats, p.o., 14 days at 10% of LD50 (CCl4, APAP: once daily, 3 days), mean ± SEM, n = 6; for Hepatic ROS: liver
Protocol: as §4
Reactive oxygen species (ROS) were measured by formation of 2′,7′-dichlorofluorescein (DCF). An aliquot of 10 μL (kidney) or 5 μL (liver) of the homogenates was added to 1,940 or 1,945 μL of TRIS:HEPES (18:1) and was incubated in the presence of 50 μL of 2′,7′-dichlorofluorescein diacetate for 1 h at 37 °C. In order to quench the reaction, the mixture was chilled using an ice bath. The fluorescence was measured using a Shimadzu fluorometer (Japan; λex = 488 nm; λem = 525 nm). The results were expressed as nM DCF formed per mg protein/h.[33]
as §5

NIH mice = experiment: Acute oral toxicity, median lethal dose (LD50); format: in vivo
Protocol: All treatments were administrated orally (p.o.) according to the scheme mentioned below.
Acute toxicity tests were performed in order to measure the median lethal dose (LD50). After acclimatization, mice were randomly allocated to ten groups (n = 4), including the control group (e.g. water, Tween 80, or PO) and the experimental groups, each with a single dose of one of the IMPYs at 4 levels of dose (0.5, 1.0, 2.0, and 4.0 g/kg b.w.).
Animals were food deprived overnight prior to administration of the chemical compounds or vehicles, and food was returned 4 h after dosing. Animals had access to water ad libitum throughout the study.[27]^,[28]

[8] = compared to the control (CCl4 also versus PO)
[9] = based on oral LD50, according to GHS [39]

SMILES | Filtered Load of Glucose (Wistar rats [1]) | Fractional Excretion of Glucose (Wistar rats [1]) | Urinary Glucose Excretion (Wistar rats [1]) | Urinary Protein Excretion (Wistar rats [1]) | Filtered Load of Potassium (Wistar rats [3]) | Filtered Load of Sodium (Wistar rats [3]) | Fractional Excretion of Potassium (Wistar rats [3]) | Fractional Excretion of Sodium (Wistar rats [3]) | Serum Osmolality (Wistar rats [3]) | Serum Potassium (Wistar rats [3]) | Serum Sodium (Wistar rats [3]) | Urinary Flow Rate (Wistar rats [3]) | Urinary Potassium Excretion (Wistar rats [3]) | Urinary Sodium Excretion (Wistar rats [3]) | Alanine Aminotransferase (Wistar rats [4]) | Alkaline Phosphatase (Wistar rats [4]) | Renal Lipoperoxidation (Wistar rats [6]) | Hepatic Lipoperoxidation (Wistar rats [6]) | Renal ROS (Wistar rats [7]) | Hepatic ROS (Wistar rats [7]) | other results
ClC(Cl)(Cl)Cl [CCl4, carbon tetrachloride, reference compound] | 4.64 ± 1.71 mg/min | 0.02 ± 0.01% | 265.11 ± 89.54 ng/min | 12.15 ± 4.49 µg/min | 17.22 ± 5.29 µEq/min | 592.11 ± 199.71 µEq/min | 6.86 ± 2.06% | 0.21 ± 0.06% | 305.77 ± 3.41 mOsm/kg | 4.27 ± 0.25 mEq/L | 139.08 ± 1.63 mEq/L | 6.59 ± 1.39 µL/min | 0.73 ± 0.10 µEq/min | 0.72 ± 0.13 µEq/min | 127.80 ± 4.08 U/L | 328.19 ± 61.36 U/L | 0.61 ± 0.07 URF/mg protein | 1.06 ± 0.11 URF/mg protein | 333.27 ± 74.29 nM de DCF/mg protein/h | 1434.82 ± 121.35 nM de DCF/mg protein/h | Serum Glucose (Wistar rats [1]): 103.17 ± 4.35 mg/dL; Glomerular Filtration Rate (Wistar rats [2]): 4.30 ± 1.47 mL/min; Serum Creatinine (Wistar rats [2]): 0.45 ± 0.13 mg/dL; U/S Osm ratio (Wistar rats [3]): 3.27 ± 0.37; serum ALP, change in words (Wistar rats [4]; [8]): increased; serum ALT, change in words (Wistar rats [4]; [8]): increased; PAH t/m ratio [5]: 2.08 ± 0.11; hepatic LPO, change in words (Wistar rats [6]): increased; renal LPO, change in words (Wistar rats [6]): increased; hepatic ROS, change in words (Wistar rats [7]): increased; renal ROS, change in words (Wistar rats [7]): increased
CCOC(=O)c1cn2ccccc2n1 [Compound 1a, ethyl imidazo[1,2-a]pyridine-2-carboxylate] | 0.39 ± 0.17 mg/min | 0.04 ± 0.01% | 96.54 ± 29.03 ng/min | 0.56 ± 0.10 µg/min | 2.69 ± 1.19 µEq/min | 64.29 ± 26.43 µEq/min | 22.26 ± 6.39% | 0.74 ± 0.22% | 293.75 ± 1.88 mOsm/kg | 6.57 ± 0.32 mEq/L | 162.39 ± 5.03 mEq/L | 4.17 ± 1.25 µL/min | 0.34 ± 0.06 µEq/min | 0.29 ± 0.08 µEq/min | 22.22 ± 1.69 U/L | 93.14 ± 11.91 U/L | 0.28 ± 0.03 URF/mg protein | 0.75 ± 0.04 URF/mg protein | 161.18 ± 27.84 nM de DCF/mg protein/h | 317.94 ± 25.65 nM de DCF/mg protein/h | Category (GHS acute oral toxicity hazard category) (NIH mice; [9]): 5; Hazard statement (GHS) (NIH mice; [9]): May be harmful if swallowed; Oral LD50 (NIH mice; female NIH mice, single oral dose, 14 days observation): 3.175 g/kg b.w.; FLG (filtered load of glucose), change in words (Wistar rats [1]; compared to control values): reduced; Serum Glucose (Wistar rats [1]): 112.39 ± 4.92 mg/dL; GFR, change in words (Wistar rats [2]; in comparison to the control group): lower; Glomerular Filtration Rate (Wistar rats [2]): 0.34 ± 0.14 mL/min; Serum Creatinine (Wistar rats [2]): 0.80 ± 0.14 mg/dL; U/S Osm ratio (Wistar rats [3]): 3.02 ± 0.25; PAH t/m ratio [5]: 2.51 ± 0.13
CC(=O)Nc1ccc(O)cc1 [APAP, acetaminophen, reference compound] | 1.35 ± 0.27 mg/min | 0.01 ± 1.9E-3% | 87.10 ± 19.92 ng/min | 0.94 ± 0.24 µg/min | 3.99 ± 0.80 µEq/min | 147.38 ± 31.27 µEq/min | 12.50 ± 3.12% | 0.27 ± 0.09% | 295.68 ± 1.57 mOsm/kg | 3.78 ± 0.22 mEq/L | 138.58 ± 2.37 mEq/L | 6.19 ± 1.15 µL/min | 0.47 ± 0.14 µEq/min | 0.46 ± 0.21 µEq/min | 41.47 ± 4.80 U/L | 151.97 ± 11.19 U/L | 0.46 ± 0.06 URF/mg protein | 1.06 ± 0.06 URF/mg protein | 421.62 ± 56.57 nM de DCF/mg protein/h | 1740.28 ± 231.55 nM de DCF/mg protein/h | serum potassium, change in words (Wistar rats [3]; compared to the control group, significant by PLS VIP and ANOVA): decreased; hepatic LPO, change in words (Wistar rats [6]): increased; renal LPO, change in words (Wistar rats [6]): increased; hepatic ROS, change in words (Wistar rats [7]): increased; renal ROS, change in words (Wistar rats [7]): increased
